Data from article PMC8052528 (Protein & Cell, 2021).

Key:
[1] = Phase 1 and Phase 2 clinical trials; ref Satoh et al., 2009; Kelly et al., 2013; cited from earlier work
SARS-CoV-2 = assay type: cell-based

| SMILES | tolerability in humans [1] | intracellular NP level versus control group (10 μmol/L chloroquine) (SARS-CoV-2) |
| --- | --- | --- |
| COCCn1c2c([n+](Cc3cnccn3)c1C)C(=O)c1ccccc1C2=O [YM155] | well tolerated | – |
| Cc1coc2c1C(=O)C(=O)c1c-2ccc2c(C)cccc12 [tanshinone I] | – | comparable NP levels with the control group |
| C[C@H]1COC2=C1C(=O)C(=O)c1c2ccc2c1CCCC2(C)C [cryptotanshinone] | – | comparable NP levels with the control group |
